Measurements published in patent US20230321101A1, “METHODS AND USES OF HALOFUGINONE” (The Regents of the University of California, priority 2020, published 2023).
“Also recorded” adds a separate entry of the source. Like-named read-outs stand apart in the source and are kept apart here.

Columns and labels:
SARS-CoV-2 = SARS-CoV-2 infected hamsters, oral halofuginone, lung pathology; assay type: in vivo; conditions: vs PBS
Excerpt: FIG. 37A-FIG. 37F: Oral dosing of halofuginone to hamsters infected with SARS-CoV-2 improved hamster lung pathology relative to a control group of hamsters (PBS).

hepcidin expression [1] = experiment: Hepcidin and SMAD7 expression in HepG2 human hepatocytes; assay type: cell-based; conditions: HepG2, 24 hr incubation
Procedure: FIG. 8A and FIG. 8B. HepG2—24 hr incubation.

[2] = system: recombinant SARS-CoV-2 spike RBD protein binding to Hep3B cells
hepcidin expression [3] = experiment: Hepcidin expression in the mouse liver upon iron loading; assay type: in vivo; conditions: mice, 1 μg per mouse per day for 8 days, iron-rich diet (8.3 g/kg) for 7 days
Procedure: FIG. 10. […] Mice treated with Halofuginone for 8 days, 1 μg per mouse per day. Mice were either on normal iron-balanced chow (0.2 g/kg) or iron-rich diet (8.3 g/kg) for 7 days in conjunction with the treatment.

authentic SARS-CoV-2 [4] = assay type: cell-based
[5] = system: primary human bronchial epithelial cells; conditions: 10 nM and 100 nM
[6] = system: heparan sulfate of Hep3B cells; experiment: HS content and disaccharide analysis by LC-MS in Hep3B cells; assay type: cell-based, human
clinical = conditions: human, in vivo, po
authentic SARS-CoV-2 [7] = assay type: cell-based; remark: listed apart in the source
[8] = system: cell surface heparan sulfate of Vero E6 cells; experiment: Heparan sulfate presentation by anti-HS mAb 10E4 staining of Vero E6 cells; assay type: cell-based, African green monkey; conditions: Vero E6, 18 h
ZIKV (Zika virus) = experiment: ZIKV antiviral immunofluorescence assay in SH-SY5Y cells; assay type: cell-based; conditions: Zika virus, read-out: EC50 ZIKV
Procedure: Experimental Procedure. The antiviral activity of 8 dilutions of each compound was explored by adding the drug to the assay cells 2 h after infection with the different viruses. Virus and compounds were left on the cells for the entire duration of the experiment (28 h for Zika virus and 24 h for all other viruses). The cytotoxicity of the same range of concentrations of compounds was determined by LDH release assay in the same cell lines.
Cell plating. Cells were detached and counted following SOP-RA 003 and SOP-RA 004. Count was recorded in the Cell Count Logbook, Volume 1. For each virus four plates were seeded, two for the antiviral assay and two for the cytotoxicity assay. Cells were seeded in 100 μl/well of complete media at the following densities: • Huh7: 8,000 cells/well (Dengue) • SH-SY5Y: 10,000 cells/wells (Zika) • HeLa Tzmbl: 8,000 cells/well (HIV)
Compounds dilutions. The 22.1 mM stocks were further diluted to 1 mM in DMSO by adding 211 μl of DMSO to 10 μl of compound. Three serial dilutions were prepared in different media for different viruses/cells. For each dilution, drugs were prepared at twice the final concentration in 50 μl volume, because they are diluted to the final concentration by an equal volume of virus or media.
Infection. Cells were infected in 50 μl of supplemented media/well at the following multiplicity of infection (MOI): • DENV-2, MOI 1 • ZIKV, MOI 5 • HIV, MOI 0.5
After removing culture media from cells, 50 μl of virus dilution were added to all wells except Column 11 (uninfected control), where the same volume of supplemented media was added. […]
Infectivity readout. […] The primary antibodies were detected with an Alexa-488 conjugate secondary antibody (Life Technologies, A11001), and nuclei were stained with Hoechst. Images were acquired on a CellInsight CX5 high content platform (Thermo Scientific) using a 4× objective, and percentage infection calculated using CellInsight CX5 software (infected cells/total cells×100).
Determination of % Inhibition—IF assay. Normalized percentages of inhibition were calculated using the following formula: […]

[9] = human, cited from earlier work
[10] = system: SARS-CoV-2 spike protein pseudotyped VSV; assay type: cell-based
authentic SARS-CoV-2 [11] = experiment: microbe, parasite or virus in culture; assay type: cell-based
hepcidin expression [12] = experiment: Hepcidin expression in Hep3B human hepatocytes; assay type: cell-based
Procedure: FIG. 6. Hep3B—18 hr incubation.
FIG. 7. Hep3B—24 hr incubation.

In the case of `O=C(CC1NCCCC1O)Cn1cnc2cc(Br)c(Cl)cc2c1=O` (racemic) [halofuginone], the “lung fibrosis, blood clotting, and inflammation” value (SARS-CoV-2; oral 1 mg/kg) is reported as “reduced lung fibrosis, blood clotting, and inflammation”, the extended lung pathology (SARS-CoV-2; oral dosing) is reported as “significant improvement” and the lung pathology severity (SARS-CoV-2; oral dosing) is reported as “significant improvement”. For the same molecule, the lung weight (SARS-CoV-2; oral dosing) was “significant improvement”, the macroscopic lung pathology (SARS-CoV-2; oral dosing) was “significant improvement” and the “BMP induced expression of hepcidin” value (hepcidin expression [1]) was “inhibits BMP induced expression of hepcidin”. The SMAD7 levels (hepcidin expression [1]) was “increases SMAD7 levels”, the “inflammation (IL6) induced expression of hepcidin” value (hepcidin expression [1]) was “inhibits inflammation (1L6) induced expression of hepcidin” and the “decrease of SARS-CoV-2 RBD binding compared to excipient control (DMSO)” value ([2]; 1 μM, 18 h) was 84%. For the same molecule, the “inhibition of spike RBD protein binding with excess proline” value ([2]; 4 mM proline in the media) was “prevented the ability of halofuginone to inhibit spike RED protein binding”, the “effect on spike (RBD) protein binding” value ([2]; listed as Halofuginone) was “reduced spike RBD protein binding” and the “hepcidin expression in the liver” value (hepcidin expression [3]) was “reduces hepcidin expression in the mouse liver”. For the same molecule, the “infectious SARS-CoV-2 in supernatants (plaque assay)” value (authentic SARS-CoV-2 [4]) was “No infectious SARS-CoV-2 could be detected; also recorded: No virus was detected”, the cell viability [5] was “without affecting cell viability” and the “disaccharide composition of HS” value [6] was “No difference was seen in the disaccharide composition”. For the same molecule, the “reduction of cell surface HS” value ([6]; 0.5 μM) was ~4 fold, the Cmax (clinical; 0.5 mg) was ~1.3 nM and the Cmax (clinical; 3.5 mg) was ~7.4 nM. For the same molecule, the “number of SARS-CoV-2 infected cells” value (authentic SARS-CoV-2 [7]; at both 10 nM and 100 nM) was “significantly reduced the number of SARS-CoV-2 infected cells”, the “inhibition of SARS-CoV-2” value (authentic SARS-CoV-2 [7]; different halofuginone doses) was “complete inhibition of SARS-CoV-2” and the “effect on heparan sulfate presentation (10E4 binding)” value [8] was 10E4 binding increased and did not significantly alter heparan sulfate production and presentation. The “effect on heparan sulfate presentation (10E4 binding)” value ([8]; listed as Halofuginone) was “did not decrease cellular HS”, the EC50 (ZIKV (Zika virus)) was 21.8 nM and the “accumulation, exposure by day 15 of dosing” value ([9]; phase I) was “two- to three-fold higher exposure”. The half-life ([9]; phase I) was ~3 h, the oral bioavailability ([9]; phase I) was “orally bioavailable” and the “average Cmax” value ([9]; single oral administration of 0.5 mg) was 0.54 ng/mL. The “average Cmax” value ([9]; single oral administration of 3.5 mg) was 3.09 ng/mL, the “inhibition of pseudotyped VSV infection” value [10] was “about 30 fold” and the IC50 (authentic SARS-CoV-2 [11]; Severe acute respiratory syndrome coronavirus 2, Vero C1008, Vero E6, excess proline in the media (4 mM), read-out: IC50 of SARS-CoV-2 infection, proline rescue experiment) was 210 nM. For the same molecule, the IC50 (authentic SARS-CoV-2 [11]; Severe acute respiratory syndrome coronavirus 2, Vero C1008, Vero E6, without excess proline, read-out: IC50 of SARS-CoV-2 infection, proline rescue experiment) was 12.5 nM, the IC50 (authentic SARS-CoV-2 [11]; Severe acute respiratory syndrome coronavirus 2, Vero C1008, Vero E6, read-out: IC50 of SARS-CoV-2 infectivity, enantiomer comparison) was 28 nM and the IC50 (authentic SARS-CoV-2 [11]; Severe acute respiratory syndrome coronavirus 2, Vero C1008, read-out: IC50 of SARS-CoV-2 infection) was 13 nM. The “effect on authentic SARS-CoV-2 infection” value (authentic SARS-CoV-2 [11]; Vero E6) was “inhibit SARS-CoV-2 infection”, the “potency compared to chloroquine” value (authentic SARS-CoV-2 [11]; Vero E6) was 100 fold and the “inhibition of SARS-CoV-2 infectivity” value (authentic SARS-CoV-2 [11]; Vero E6, 50 nM) was “completely inhibited SARS-CoV-2 infectivity”. For the same molecule, the “inhibition of SARS-CoV-2 infectivity” value (authentic SARS-CoV-2 [11]; Vero E6, doses greater than 10 nM) was “complete inhibition of SARS-CoV-2 infectivity”, the basal hepcidin expression (hepcidin expression [12]; 18 hr incubation) was “inhibits basal hepcidin expression” and the “BMP6 induced expression of hepcidin” value (hepcidin expression [12]; 24 hr incubation) was “inhibits BMP6 induced expression of hepcidin”.
